The values below come from patent US20260335205A1, “ACTIVE AGENT MODULATING THE ACTIVITY OF AN ION CHANNEL FOR USE IN REGULATION OF SKIN PIGMENTATION” (priority 2022, published 2026).

The test system of series [1] is epidermal melanin content in human skin organ culture. Description: Epidermal melanin content (Warthin-Starry / Fontana Masson histochemistry, quantitative histomorphometry) in ex vivo human skin organ culture. Format: cell-based. On the procedure: (§1) Samples of human abdominal, temporal, and occipital skin were obtained with written patient consent and under ethical approval from healthy adult human subjects during elective plastic surgery performed for cosmetic reasons. Full-thickness human skin samples were prepared as 4-6 mm punches, placed on filter paper, and cultured at the air-liquid interphase under serum-free conditions in William's E medium supplemented only with insulin, hydrocortisone and L-glutamine, as described previously.
For topical application of menthol (Sigma), a TRPM8 activator, a stock (5 M) was prepared in ethanol and dissolved at 37 °C at a final concentration of 1 mM in a 30% v/v solution of Polyethylene glycol 6000 (Sigma) in ethanol. For topical application of N-(3-Aminopropyl)-2-[(3-methylphenyl)methoxy]-N-(2-thienylmethyl)benzamide hydrochloride (AMTB) (Sigma), an TRPM8 inhibitor, a stock (50 mM) was prepared in water and dissolved at 37 °C at a final concentration of 10 μM in a 30% v/v solution of Polyethylene glycol 6000 (Sigma) in ethanol. Two μL droplets of this viscous solution containing menthol (1 mM), AMTB (10 μM), their combination, or ethanol as vehicle control were applied daily (up to 3 days) to the epidermis of skin biopsies.
Histochemical visualization of melanin in skin sections was performed using the Warthin-Starry Stain Kit (Abcam) or Fontana Masson histochemistry. For Warthin-Starry histochemistry, formalin-fixed human skin/HF frozen sections were rinsed in distilled water and incubated with AgNO3(0.5 % in acidulated water) for 30 seconds at 50 °C. Next, the sample was incubated with developer solution (0.42% AgNO3, 5% Gelatin, and 0.15% hydroquinone in acidulated water) and incubated for 2-5 minutes at 50 °C. The reaction was stopped by consecutive rinses in hot (60 °C) tap water for 2 minutes. Incubation with Na2S2O3 (5 % in distilled water) for 1 minute, followed by 3 minutes of consecutive washes in tap water can also be used to remove unbound AgNO3 and to tone the brown coloring of melanin black. Brief counterstain with hematoxylin was used to visualize nuclei. […]
Images were then obtained with a digital microscope (Keyence). Quantitative histomorphometric analysis was performed by assessing the relative intensity and the area of melanin stain in standardized reference areas with ImageJ (NIH; Bethesda, MD, USA). Briefly, for each parameter evaluated, multiple non-consecutive skin sections (at least 280 μm apart from each other) per punch biopsy were stained. Two skin punch biopsies were analyzed per experimental group unless indicated otherwise. The melanin content was then calculated based on the product of the fraction of area occupied by melanin and the mean shade of gray of the melanin, as described in detail elsewhere. […]

The test system of series [2] is tyrosinase. Description: In situ tyrosinase activity (quantitative histomorphometry) in ex vivo human skin organ culture. Type of series: cell-based. The note with it: after 3 days. On the procedure: Samples of human abdominal, temporal, and occipital skin were obtained with written patient consent and under ethical approval from healthy adult human subjects during elective plastic surgery performed for cosmetic reasons. Full-thickness human skin samples were prepared as 4-6 mm punches, placed on filter paper, and cultured at the air-liquid interphase under serum-free conditions in William's E medium supplemented only with insulin, hydrocortisone and L-glutamine, as described previously. […]
For the in situ detection of tyrosinase activity (the enzyme that catalyzes the rate-limiting step of melanin synthesis), human skin cryosections were fixed in an acetone/methanol solution (1:1 ratio) and blocked with H2O2 (0.3 % in PBS) for 15 minutes. […] Tyrosinase activity was detected with the TSA™ Biotin System (Akoya Biosciences). […]
Image acquisition and quantitative histomorphometric analysis were performed similar to as described for the Warthin-Starry technique, with a special emphasis on assessing the relative intensity and the area of tyrosinase activity-specific immunoreactivity (IR) in the basal epidermal layer (i.e., the epidermal compartment where melanocytes reside).

In series [3] the test system is gp100. Description: gp100-specific immunoreactivity (immunohistochemistry, quantitative histomorphometry) in ex vivo human skin organ culture. The conditions noted are these: after 3 days. Type of series: cell-based. As for the experimental part: as §1
For topical application of menthol (Sigma), a TRPM8 activator, a stock (5 M) was prepared in ethanol and dissolved at 37 °C at a final concentration of 1 mM in a 30% v/v solution of Polyethylene glycol 6000 (Sigma) in ethanol. […]
After consecutive rinses in PBS, samples were incubated with rhodamine-conjugated secondary antibody (Jackson ImmunoResearch) diluted 1:200 in normal goat serum (2% in PBS) for 45 minutes at RT. […] Image acquisition and quantitative histomorphometric analysis were performed similar to as described for the Warthin-Starry technique, with a special emphasis on assessing the relative intensity and the area of gp100-specific immunoreactivity (IR) in the basal epidermal layer (i.e., the epidermal compartment where melanocytes reside).

For series [4] the following is noted: background; cited from earlier work.
For series [5], the system named is melanocyte tyrosinase. The conditions noted are these: background, phenolic compounds (e.g., hydroquinone and derivatives); cited from earlier work.
Where [6] appears, read: topical menthol 1 mM, after 3 days, vs vehicle, Warthin-Starry (FIG. 1).

SMILES strings stand for the structures.

`Cc1cccc(COc2ccccc2C(=O)N(CCCN)Cc2cccs2)c1.Cl` [AMTB, N-(3-Aminopropyl)-2-[(3-methylphenyl)methoxy]-N-(2-thienylmethyl)benzamide hydrochloride]: in series [1] (topical AMTB 10 μM with menthol 1 mM, after 3 days, vs vehicle, Warthin-Starry (FIG. 4)), the “prevention of menthol-induced increase of epidermal melanin content” value is recorded as “prevented the effect of the TRPM8 agonist menthol (1 mM) to increase epidermal melanin content”. For the same molecule, the “prevention of menthol-induced increase of tyrosinase activity in the basal epidermal layers” value in series [2] (topical AMTB 10 μM with menthol 1 mM, vs vehicle (FIG. 6)) was “prevented the effect of the TRPM8 agonist menthol (1 mM) to increase tyrosinase activity in the basal epidermal layers”. The “prevention of menthol-induced increase of gp100-specific IR in the basal epidermal layers” value in series [3] (topical AMTB 10 μM with menthol 1 mM, vs vehicle (FIG. 5)) is on record as “prevented the effect of the TRPM8 agonist menthol (1 mM) to increase gp100-specific IR in the basal epidermal layers”.
As to `Oc1ccc(O)cc1` [hydroquinone], in series [4], the DNA damage entry is “shown to cause DNA damage”; the chronic adverse effects entry is “contact dermatitis, sclera and nail hyperpigmentation, impaired wound healing”. Further, the “inhibition of melanocyte tyrosinase” value in series [5] is “shown to inhibit melanocyte tyrosinase”.
With `CC1CCC(C(C)C)C(O)C1` (centres unmarked) [menthol], in series [1] (setting [6]), the epidermal melanin content result is given as “markedly increases epidermal melanin content”; the “melanin content in basal and suprabasal layers” value was “increased the melanin content not only in the basal layer (i.e., the epidermal compartment where melanocytes reside) but also in the suprabasal layers”. In addition, the “epidermal melanin content verified by two independent histochemical technologies” value in series [1] (topical, human ex vivo skin organ cultures) is “upregulated epidermal melanin content”. Further, the “intensity level of tyrosinase activity in the basal epidermal layers” value in series [2] (topical menthol 1 mM, vs vehicle (FIG. 3)) is reported as “markedly increases the intensity level of tyrosinase activity in the basal epidermal layers”. For the same molecule, the “intensity level of gp100-specific IR in the basal epidermal layers” value in series [3] (topical menthol 1 mM, vs vehicle (FIG. 2)) was “markedly increases the intensity level of gp100-specific IR in the basal epidermal layers”.
